Laboratory results as given in patent publication US11872311B2, “Metal bisphosphonate nanoparticles for anti-cancer therapy and imaging and for treating bone disorders” (The University of North Carolina at Chapel Hill, priority 2011, dated 2024).

Columns and labels:
Assay type in all cases: cell-based
[1] = tested on: NCI-H460 large lung cancer cells; experiment: Cell viability, trypan blue exclusion (Mn-Zol particles); settings: Homo sapiens, 48 h, zoledronate concentrations
Excerpt: (§1) NCI-H460 large lung cancer cells (ATCC # HTB-177) and MCF-7 human breast cancer cells (ATCC # HTB-22) were purchased from the Tissue Culture Facility of Lineberger Comprehensive Cancer Center at the University of North Carolina at Chapel Hill. The cell line was maintained as a suspension in RPMI-1640 growth medium (Cellgro®, Mediatech, Inc., Manassas, Virginia., United States of America) supplemented with 10% fetal bovine serum (Sigma, St. Louis, Missouri., United States of America) and 2% penicillin-streptomycin (Sigma, St. Louis, Missouri, United States of America).
Confluent H460 cells were counted from the culture flask using a hematocytometer. Cells were plated in 6-well plates at a cell density of 5×10^4 cells/well in 3 mL RPMI-1640 complete growth medium. The cells were incubated at 37° C. and 5% CO2 overnight. Zoledronate, bare liposome, and particle dispersions of Mn-Zol and lipid coated Mn-Zol (20 μM) in RPMI-1640 media and additional media were added to wells, resulting in zoledronate concentrations (μM) of 0, 1.0, 2.5, 5, 10, and 20. Cells were incubated (37° C., 5% CO2) with free zoledronate, liposome, or particle for 48 h. Viability was determined by the trypan blue exclusion assay.

[2] = tested on: MCF-7 cells; experiment: Cytotoxicity assay against MCF-7 cells (FIG. 35B); settings: Homo sapiens, MCF7
Excerpt: (§2) FIGS. 35A and 35B present data from cytotoxicity assays of Mn-Zol@DOPA, PEG-A-Zn-Zol, and AA-PEG-A-Mn-Zol particles against ASPC-1 (FIG. 35A) and MCF-7 cells (FIG. 35B).

[3] = tested on: human PC-3 prostate adenocarcinoma cells; experiment: Cell viability assay in PC-3 cells (A-Ca-Zol particles)
Experimental: In addition, a cell viability assay was also performed in a similar manner, but using human PC-3 prostate adenocarcinoma cells. Cell viability results for PC-3 cells treated with either zoledronate or as synthesized A-Ca-Zol nanoparticles are provided in FIG. 24. The IC50's are estimated to be 3.1, and 0.8 for zoledronate and as-synthesized A-Ca-Zol, respectively.

[4] = tested on: ASPC-1; experiment: Cytotoxicity assay against ASPC-1 (FIG. 35A); settings: Homo sapiens, ASPC1
Excerpt: as §2

[5] = tested on: MCF-7 human breast cancer cells; experiment: Cell viability, trypan blue exclusion (A-Mn-Zol particles); settings: MCF7, MCF-7 cells, 48 h, zoledronate concentrations
Excerpt: as §1
Confluent MCF-7 cells were trypsinized (trypsin-EDTA, Sigma, St. Louis, Missouri, United States of America) and cell density was obtained from a hemocytometer. 6-well plates were seeded with 5.0×10^4 cells/well and a total of 3 mL media. The plates were incubated at 37° C. and 5% CO2 overnight. Amounts of zoledronate, liposomes, and particle dispersions in RPMI-1640 medium and additional media (5% phosphate buffered saline, Cellgro®, Mediatech, Inc., Manassas, Virginia., United States of America) were added to wells resulting in zoledronate concentrations of 0, 2.5, 5, 10, 20, and 40 μM. The plates were incubated at 37° C. and 5% CO2 for 48 h and viability was determined via the trypan blue exclusion assay. […]

[6] = tested on: H460 human lung carcinoma cells; experiment: Cell viability assay, trypan blue cell counts (A-Ca-Zol particles); settings: NCI-H460, 48 hrs
Experimental: Four cell culturing plates were set-up for cell viability assays. In each well, 100,000 H460 human lung carcinoma cells were placed in each well with 3 mL of RPMI media (supplemented with 10% FBS and 2% PenStrep) and were allowed to incubate overnight for cell adhesion at 37° C. at 5% CO2.
20 μM stock solutions of zolendrate, bare particle (i.e., as synthesized A-Ca-Zol), RGD targeted particle and anisamide targeted particle were prepared so that treatment curves of 0 μM, 1 μM, 5 μM, 10 μM, 20 μM and […] were established in RPMI media. After individual treatment, the plates were placed back in the incubator for 48 hrs.
After incubation, media and treatment was removed from each well and cells were washed 2× with 1 mL of PBS. 1 mL of trypsin was added to each well and placed back in the incubator for 3 min. The cells and trypsin were then transferred to centrifuge tubes and centrifuged for 3 min and the cell pellet was then redistributed in 1 mL of media. Cell counts were taken using 20 μL of cells and 20 μL trypan blue on a hemocytometer.

[7] = tested on: NCI-H460 large lung cancer cells; experiment: Cancer cell growth inhibition assay, trypan blue exclusion (Ca-Pam particles); settings: Homo sapiens, 48 h, pamidronate concentrations
Excerpt: as §1, with “(American Type Culture Collection (ATCC)#” for “(ATCC #”, “HTB-177)” for “HTB-177) and MCF-7 human breast cancer cells (ATCC # HTB-22)”, “Missouri.,” for “Missouri,”
Confluent H460 cells were counted from the culture flask using a hematocytometer. Cells were plated in 6-well plates at a cell density of 5×10^4 cells/well in 3 mL RPMI-1640 complete growth medium. The cells were incubated at 37° C. and 5% CO2 overnight. Pamidronate, and particle dispersions of Ca-Pam, lipid coated Ca-Pam, and AA-lipid coated Ca-Pam (80 μM) in RPMI-1640 media and additional media were added to wells, resulting in pamidronate concentrations (μM) of 0, 5, 10, 20, 40, and 80. Cells were incubated (37° C., 5% CO2) with free pamidronate or particle for 48 h. Viability was determined by the trypan blue exclusion assay.

IC50 [1] [µM]	IC50 [3] [µM]	IC50 [5] [µM]	IC50 [6] [µM]	IC50 [7] [µM]	SMILES	IC50 [2] [µM]	IC50 [4] [µM]
> 20	3.1	9	> 20	–	O=P(O)(O)C(O)(Cn1ccnc1)P(=O)(O)O [zoledronate]	> 60	> 60
–	–	–	–	65	NCCC(O)(P(=O)(O)O)P(=O)(O)O [pamidronate]	–	–
